One assay addresses μ (MOR) receptor (Homo sapiens (Human), UniProt P35372). Put plainly: Inhibitory constant at μ opioid receptor (MOR). It is filed as binding.
In a further assay the target is δ (DOR) receptor (Homo sapiens (Human), UniProt P41143). Briefly: Inhibitory constant at δ opioid receptor (DOR). It is filed as binding.
Another assay addresses human μOR (Homo sapiens (Human), UniProt P35372). Briefly: cell-based. As for the experimental part:
Determination of functional activity of selected embodiments was performed using a BRET-based cAMP accumulation assay. […] After 24 hrs of transfection cells were seeded into white half-area 96-well plates at a density of 10000 cells/well and grown for further 24 hrs. On the day of measurement, medium was removed and replaced by Phosphate Buffered Saline (PBS) and cells were serum starved for 1 hr before treatment with ligands. Cells were preincubated with coelenterazine h (Progmega, Mannheim, Germany) for 5 min at a final concentration of 5 μM before adding forskolin (final concentration 10 μM) to start cAMP accumulation. Immediately after adding forskolin, a series of concentrations of test compounds were added to the cells. After incubating the microplates for 15 min at 37° C. BRET, measurement was performed using a Clariostar plate reader (BMG LabTech, Ortenberg, Germany).

In assay [1] the target is MOR (ProLink tagged MOR-PK1 / β-arrestin-2) (Homo sapiens (Human), UniProt P35372). Put plainly: β-arrestin recruitment, PathHunter enzyme complementation assay (DiscoverX). The format is cell-based. The settings on record: for MOR activation, β-arrestin recruitment Emax: HEK-293 cells, normalized to maximum effect of DAMGO (100%); for Emax: HEK293, read-out: MOR activation, β-arrestin recruitment Emax. As for the experimental part:
(§1) β-Arrestin recruitment was measured by using the PathHunter enzyme complementation assay (DiscoverX, Birmingham, U.K.) as described in the manufacturer's protocol. […] After 24 h cells were transferred into white clear bottom 384-well plates (5000 cells/well) (Greiner Bio-One) and maintained for further 24 h at 37° C., 5% CO2. Test compounds were incubated with the cells in a range from 0.01 nM to 1 μM dissolved in PBS for 90 min at 37° C. Arrestin recruitment was stopped by addition of detection mix for 60 min at room temperature. Chemiluminescence was determined using a Clariostar plate reader. Data analysis was done by nonlinear regression using the algorithms for log(agonist) vs. response of PRISM 6.0 (GraphPad, San Diego, Calif.). […] For testing the arrestin recruitment in the presence of GRK proteins cells were cotransfected with ProLink tagged MOR-PK1 and GRK2 at equal quantities.

Assay [2] has as its target MOR (ProLink tagged MOR-PK1 cotransfected with GRK2 / β-arrestin-2) (Homo sapiens (Human), UniProt P35372). Briefly: β-arrestin recruitment in the presence of GRK2, PathHunter assay. It is filed as cell-based. The settings on record: for MOR activation, β-arrestin recruitment (+GRK2) Emax: HEK-293 cells cotransfected with GRK2; for EC50: MOR activation, β-arrestin recruitment (+GRK2) EC50, HEK-293 cells cotransfected with GRK2. How it is done: as §1
In general terms: Arrestin recruitment assays detect the binding of arrestin to an activated receptor.

Setting [3] is: Example 1, read-out: MOR: cAMP BRET: EC50.
[4] abbreviates: HEK-293T cells, forskolin 10 μM, mean of three to ten experiments, read-out: MOR activation, cAMP accumulation EC50.
Where [5] appears, read: normalized to maximum effect of DAMGO (100%).

The record followed here is patent US10780078B2, “Mu opioid receptor modulators” (THE REGENTS OF THE UNIVERSITY OF CALIFORNIA, priority 2017, dated 2020).

The term Ki denotes the dissociation constant of the complex between target and ligand, obtained from inhibition or displacement. Low values mean higher affinity, high ones lower affinity. As a reminder, the EC50 is the concentration giving half of the maximal effect. A word on the Emax: it is the size of the effect at its maximum, as opposed to the concentration needed.

Read-outs that look alike come from different tables or passages of the source.

δ (DOR) receptor, sequence (P41143 whole entry, looked up): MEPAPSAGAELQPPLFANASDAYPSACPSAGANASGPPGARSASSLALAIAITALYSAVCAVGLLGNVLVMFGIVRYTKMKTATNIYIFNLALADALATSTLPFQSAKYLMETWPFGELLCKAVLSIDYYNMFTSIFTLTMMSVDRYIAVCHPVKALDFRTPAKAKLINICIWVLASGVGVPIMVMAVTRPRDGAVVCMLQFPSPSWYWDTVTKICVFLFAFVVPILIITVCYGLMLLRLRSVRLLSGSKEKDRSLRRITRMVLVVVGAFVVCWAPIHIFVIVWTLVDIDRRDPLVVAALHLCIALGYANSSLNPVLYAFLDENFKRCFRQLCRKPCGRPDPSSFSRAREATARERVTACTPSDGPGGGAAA

As to `C[C@@H](Cc1ccsc1)NC(=O)NCC1(N(C)C)CCc2ccccc2C1` (single isomer, unassigned) [DD 262 P1], the Ki on μ (MOR) receptor was determined as 2.6 µM; at δ (DOR) receptor, 14 µM.

As for `C[C@@H](Cc1ccsc1)NC(=O)NCC1(N(C)C)CCc2ccccc2C1` (single isomer, unassigned) [DD 262 P2], the Ki on μ (MOR) receptor was determined as 1.3 µM; on δ (DOR) receptor it was 7.4 µM.

In the case of `C[C@@H](Cc1ccsc1)NC(=O)NCC1(N(C)C)CCc2cc(O)ccc2C1` (single isomer, unassigned) [DD 272A], the Ki at μ (MOR) receptor is 0.14 µM; at δ (DOR) receptor it was 1.8 µM. Further, the “MOR activation, cAMP accumulation Emax” value at human μOR is listed as 75%. The “MOR: cAMP BRET: Emax” value at human μOR (Example 1) came out at 108%. Besides, the half-maximal effective concentration (EC50) was determined as 0.136 µM at human μOR (setting [3]) and 0.024 µM on human μOR (setting [4]). The “MOR activation, β-arrestin recruitment Emax” value in assay [1] is given as <3%. The “MOR activation, β-arrestin recruitment (+GRK2) Emax” value (shortened to “MOR activation … (+GRK2) Emax”) in assay [2] (setting [5]) is <3%.

Turning to `C[C@@H](Cc1ccsc1)NC(=O)NCC1(N(C)C)CCc2cc(O)ccc2C1` (single isomer, unassigned) [DD 272B], the results for the Ki on μ (MOR) receptor and on δ (DOR) receptor were 0.057 µM and 0.84 µM, respectively. Moreover, the “MOR activation, cAMP accumulation Emax” value at human μOR was determined as 98%. Further, on human μOR (Example 1), the “MOR: cAMP BRET: Emax” value is on record as 50%. Also, the values for the EC50 (at human μOR (setting [3]); on human μOR (setting [4]); in assay [2]) were 0.0016 µM, 0.0015 µM and 0.45 µM, respectively. Besides, in assay [1], the Emax is < 3%. In addition, the “MOR activation … (+GRK2) Emax” value in assay [2] (setting [5]) worked out at 7%.

For `C[C@@H](Cc1ccsc1)NC(=O)NCC1(N(C)C)Cc2ccc(O)cc2C1` (single isomer, unassigned) [DD 297A], the Ki at μ (MOR) receptor came out at 0.0059 µM; at δ (DOR) receptor it was 0.068 µM. The 50% effective concentration (EC50) at human μOR (setting [3]) amounted to 0.0018 µM; on human μOR (setting [4]) it was 0.0012 µM; in assay [2] it was 0.042 µM. The maximal response (Emax) on human μOR (Example 1, read-out: MOR: cAMP BRET: Emax) was 80%; on human μOR (HEK-293T, read-out: MOR activation, cAMP accumulation Emax), 80%; in assay [1], < 3%; in assay [2] (HEK293, read-out: MOR activation, β-arrestin recruitment (+GRK2) Emax, HEK-293 cells cotransfected with GRK2, normalized to maximum effect of DAMGO (100%)), 13%.

As for `C[C@@H](Cc1ccsc1)NC(=O)NCC1(N(C)C)Cc2ccc(O)cc2C1` (single isomer, unassigned) [DD 297B], the inhibition constant (Ki) on μ (MOR) receptor was 0.19 µM; at δ (DOR) receptor, 2 µM. Also, the “MOR activation, cAMP accumulation Emax” value at human μOR was 73%. In addition, the “MOR: cAMP BRET: Emax” value on human μOR (Example 1) is listed as 65%. Further, the 50% effective concentration (EC50) was determined as 0.0125 µM on human μOR (setting [3]), 0.013 µM on human μOR (setting [4]) and 0.67 µM in assay [2]. In addition, the “MOR activation, β-arrestin recruitment Emax” value in assay [1] is listed as <3%. Moreover, in assay [2] (setting [5]), the “MOR activation … (+GRK2) Emax” value is 7%.

For the compound `C[C@@H](Cc1ccsc1)NC(=O)NCC1(N(C)C)Cc2ccccc2C1` [DD 277, (S)-1-((2-(dimethylamino)-2,3-dihydro-1H-inden-2-yl)methyl)-3-(1-(thiophen-3-yl)propan-2-yl)urea], the Ki at μ (MOR) receptor was determined as 0.5 µM; on δ (DOR) receptor, 8.4 µM.

Take `C[C@@H](Cc1ccsc1)NC(=O)NCC1(N(C)C)Cc2ccc(O)cc2C1` (stereo partly drawn) [DD 297A, 1-((2-(dimethylamino)-5-hydroxy-2,3-dihydro-1H-inden-2-yl)methyl)-3-((S)-1-(thiophen-3-yl)propan-2-yl)urea]: in assay [1] (Example 1), the “MOR: Arrestin DiscoverX” value is reported as “no significant activity”.
